Measured values: patent publication US8889704B2 (Array BioPharma Inc., priority 2011, dated 2014)
pIC50: −log10 of the molar value. Structures can show the parent of a compound that is named as a salt.

Columns and labels:
Format in all cases: biochemical
[1] = target: T1, GST-tagged recombinant full-length human Pim-2 (Homo sapiens, UniProt Q9P1W9); experiment: PIM-2 Assay (as Example A); settings: averaged IC50; 4 μM ATP, 1.0 μM PIM2tide, 1.5 nM Pim-2
T1 construct: GST-tagged recombinant full-length human Pim-2; GST
Summary of the method: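 IC50 was derived by 4-parameter logistic fitting of percent-of-control data over a 10-point, 3-fold series (highest 10 μM, 2% DMSO). Reactions held 1.5 nM GST-Pim-2 (full-length, human), 4 μM [γ-33P]ATP and 1.0 μM PIM2tide for 60 min at 22 °C, pH 7.4; 33P-peptide captured on P81 filters.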

recombinant rat PIM-3 = recombinant rat PIM-3 (Rattus norvegicus, UniProt O70444); experiment: PIM-3 Assay (as Example A); settings: averaged IC50; 30 μM ATP, 3.75 μM PIM2tide, 0.5 nM PIM-3
Summary of the method: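 33P incorporation from 30 μM [γ-33P]ATP into 3.75 μM PIM2tide by 0.5 nM rat PIM-3, 60 min at 22 °C in pH 7.4 MOPS buffer, read by P81 filter capture and scintillation counting. Compounds tested in 3-fold dilutions up to 10 μM final, 2% DMSO; percent-of-control data fitted by 4-parameter logistic for IC50.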

PIM-1 = PIM-1 (Homo sapiens, UniProt P11309); experiment: Enzyme PIM-1 Assay ([33P]ATP incorporation into PIM2tide, filter plate); settings: averaged IC50; 35 μM ATP, 7.5 μM PIM2tide, 0.25 nM PIM-1, 60 min at 22° C.
Summary of the method: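 Ten-point, 3-fold dilution series (10 μM top, 2% DMSO final) tested for inhibition of 33P transfer from 35 μM ATP to 7.5 μM PIM2tide by 0.25 nM PIM-1. Reaction 60 min, 22 °C, pH 7.4 MOPS/MgCl2 buffer; phosphocellulose capture, scintillation counting, IC50 where fitted POC equals 50.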

Chain of PIM-1 (P11309 whole entry, species assumed): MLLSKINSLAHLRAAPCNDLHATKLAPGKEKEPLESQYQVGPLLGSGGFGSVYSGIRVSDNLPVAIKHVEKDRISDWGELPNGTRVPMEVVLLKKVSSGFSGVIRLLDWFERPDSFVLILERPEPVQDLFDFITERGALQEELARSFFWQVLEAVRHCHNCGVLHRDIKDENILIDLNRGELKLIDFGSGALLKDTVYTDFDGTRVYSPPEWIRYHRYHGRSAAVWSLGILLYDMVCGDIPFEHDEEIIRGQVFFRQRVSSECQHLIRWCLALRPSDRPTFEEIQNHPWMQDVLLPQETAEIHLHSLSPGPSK
T1 sequence (Q9P1W9 whole entry): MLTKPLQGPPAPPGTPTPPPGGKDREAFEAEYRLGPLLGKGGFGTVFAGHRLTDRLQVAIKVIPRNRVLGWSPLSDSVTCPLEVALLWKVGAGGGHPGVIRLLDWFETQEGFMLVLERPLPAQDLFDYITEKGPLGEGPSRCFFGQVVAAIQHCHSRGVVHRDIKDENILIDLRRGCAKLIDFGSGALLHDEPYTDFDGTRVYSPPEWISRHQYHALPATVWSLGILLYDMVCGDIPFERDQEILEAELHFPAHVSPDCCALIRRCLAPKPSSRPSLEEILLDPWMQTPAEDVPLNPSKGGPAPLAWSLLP

CC1(N)CCN(C(c2ccc3nnc(-c4ccc5cccc(O)c5n4)n3c2)C(F)(F)F)C1 (stereo not drawn) [Example 28, 2-(6-(1-(3-amino-3-methylpyrrolidin-1-yl)-2,2,2-trifluoroethyl)-[1,2,4]triazolo[4,3-a]pyridin-3-yl)quinolin-8-ol dihydrochloride]
pIC50 [1]: < 6.00
pIC50 (recombinant rat PIM-3): 8.09
pIC50 (PIM-1): 8.97

C[C@H](CO)Oc1cccc2ccc(-c3nnc4ccc([C@@H](N5CC[C@H](N)C5)C(F)(F)F)cn34)nc12 [Example 186, (R)-2-(2-(6-((R)-1-((S)-3-aminopyrrolidin-1-yl)-2,2,2-trifluoroethyl)-[1,2,4]triazolo[4,3-a]pyridin-3-yl)quinolin-8-yloxy)propan-1-ol dihydrochloride]
pIC50 [1]: 7.17
pIC50 (recombinant rat PIM-3): 9.40
pIC50 (PIM-1): 9.80

COc1cccc2ccc(-c3nnc4ccc(C(N5CCCC5)C(F)(F)F)cn34)nc12 (stereo not drawn) [Example 6, 8-methoxy-2-(6-(2,2,2-trifluoro-1-(pyrrolidin-1-yl)ethyl)-[1,2,4]triazolo[4,3-a]pyridin-3-yl)quinoline]
pIC50 [1]: < 6.00
pIC50 (recombinant rat PIM-3): < 7.00
pIC50 (PIM-1): 7.95

CC(C)Oc1cccc2ccc(-c3nnc4ccc([C@@H](N5C[C@@H](O)[C@H](O)C5)C(F)(F)F)cn34)nc12 [Example 72, (3R,4R)-1-((R)-2,2,2-trifluoro-1-(3-(8-isopropoxyquinolin-2-yl)-[1,2,4]triazolo[4,3-a]pyridin-6-yl)ethyl)pyrrolidine-3,4-diol]
pIC50 [1]: < 7.00
pIC50 (recombinant rat PIM-3): 8.54
pIC50 (PIM-1): 9.72

N[C@H]1CCN([C@H](c2ccc3nnc(-c4ccc5ccc(C6CC6)c(F)c5n4)n3c2)C(F)(F)F)C1 [Example 172, (S)-1-((R)-1-(3-(7-cyclopropyl-8-fluoroquinolin-2-yl)-[1,2,4]triazolo[4,3-a]pyridin-6-yl)-2,2,2-trifluoroethyl)pyrrolidin-3-amine dihydrochloride]
pIC50 [1]: < 7.00
pIC50 (recombinant rat PIM-3): 8.00
pIC50 (PIM-1): 8.65

CCOc1ccc2ccc(-c3nnc4ccc([C@@H](N5CCC6(CCCN6)C5)C(F)(F)F)cn34)nc2c1 (stereo partly drawn) [Example 257, 7-ethoxy-2-(6-((1R)-2,2,2-trifluoro-1-(1,7-diazaspiro[4.4]nonan-7-yl)ethyl)-[1,2,4]triazolo[4,3-a]pyridin-3-yl)quinoline dihydrochloride]
pIC50 [1]: 6.14
pIC50 (recombinant rat PIM-3): 8.05
pIC50 (PIM-1): 8.84

CCC1(N)CCN([C@H](c2ccc3nnc(-c4ccc5cccc(OC)c5n4)n3c2)C(F)(F)F)C1 (single isomer, unassigned; diastereomer 2) [Example 252, dihydrochloride]
pIC50 [1]: < 6.00
pIC50 (recombinant rat PIM-3): 7.62
pIC50 (PIM-1): 8.39

N[C@@H]1CCN([C@@H](c2ccc3nnc(-c4ccc5cccc(OCC6CC6)c5n4)n3c2)C(F)(F)F)C1 (single isomer, unassigned) [Example 23]
pIC50 [1]: 6.39
pIC50 (recombinant rat PIM-3): 7.42
pIC50 (PIM-1): 8.55

COc1cccc2ccc(-c3nnc4ccc([C@@H](N5CC[C@H](N)C5)C(F)(F)F)cn34)nc12 [Example 9, (S)-1-((R)-2,2,2-trifluoro-1-(3-(8-methoxyquinolin-2-yl)-[1,2,4]triazolo[4,3-a]pyridin-6-yl)ethyl)pyrrolidin-3-amine dihydrochloride]
pIC50 [1]: 6.39
pIC50 (recombinant rat PIM-3): 8.38
pIC50 (PIM-1): 9.17

CN(C)C(=O)Cc1cccc2ccc(-c3nnc4ccc([C@@H](N5CC[C@H](N)C5)C(F)(F)F)cn34)nc12 [Example 234, 2-(2-(6-((R)-1-((S)-3-aminopyrrolidin-1-yl)-2,2,2-trifluoroethyl)-[1,2,4]triazolo[4,3-a]pyridin-3-yl)quinolin-8-yl)-N,N-dimethylacetamide dihydrochloride]
pIC50 [1]: < 6.00
pIC50 (recombinant rat PIM-3): 7.48
pIC50 (PIM-1): 8.09

Cc1cc(F)cc2ccc(-c3nnc4ccc([C@@H](N5CC[C@H](N)C5)C(F)(F)F)cn34)nc12 [Example 184, (S)-1-((R)-2,2,2-trifluoro-1-(3-(6-fluoro-8-methylquinolin-2-yl)-[1,2,4]triazolo[4,3-a]pyridin-6-yl)ethyl)pyrrolidin-3-amine dihydrochloride]
pIC50 [1]: < 7.00
pIC50 (recombinant rat PIM-3): 8.82
pIC50 (PIM-1): 9.39
